In patent publication US20220009922A1, “NOVEL UREA 6,7-DIHYDRO-4H-PYRAZOLO[4,3-C]PYRIDINES ACTIVE AGAINST THE HEPATITIS B VIRUS (HBV)” (AiCuris GmbH & Co. KG, priority 2018, published 2022):
pEC50: −log10 of the molar value.

Test system: HepAD38 cells
Assay: Cell viability assay (AlamarBlue) in HepAD38 cells
Details: HepAD38 cells in the presence of 0.3 μg/ml tetracycline, six days incubation

| Structure (SMILES) | CC50 [µM] |
| --- | --- |
| CC1Cc2n[nH]c(C(=O)N3CC(F)(F)CC34CC4)c2CN1C(=O)Nc1ccc(F)c(Cl)c1 (single isomer, unassigned) [Example 9, N-(3-chloro-4-fluorophenyl)-3-{6,6-difluoro-4-azaspiro[2.4]heptane-4-carbonyl}-6-methyl-2H,4H,5H,6H,7H-pyrazolo[4,3-c]pyridine-5-carboxamide] | > 10 |

Test system: HBV
Assay: not given
Details: Hepatitis B virus, HePAD38, 144 h, read-out: Cell Activity (EC50)

| Structure (SMILES) | pEC50 |
| --- | --- |
| CC1Cc2n[nH]c(C(=O)N3CC(F)(F)CC34CC4)c2CN1C(=O)Nc1ccc(F)c(Cl)c1 (single isomer, unassigned) [Example 8, N-(3-chloro-4-fluorophenyl)-3-{6,6-difluoro-4-azaspiro[2.4]heptane-4-carbonyl}-6-methyl-2H,4H,5H,6H,7H-pyrazolo[4,3-c]pyridine-5-carboxamide] | > 6.00 |
| CN(C(=O)c1n[nH]c2c1CN(C(=O)Nc1ccc(F)c(Cl)c1)CC2)C1(COC(F)F)CC1 [Example 1, N5-(3-chloro-4-fluorophenyl)-N3-{1-[(difluoromethoxy)methyl]cyclopropyl}-N3-methyl-1H,4H,5H,6H,7H-pyrazolo[4,3-c]pyridine-3,5-dicarboxamide] | > 6.00 |
| COCC1(N(C)C(=O)c2n[nH]c3c2CN(C(=O)Nc2ccc(F)c(Cl)c2)CC3)CC1 [Example 2, N5-(3-chloro-4-fluorophenyl)-N3-[1-(methoxymethyl)cyclopropyl]-N3-methyl-1H,4H,5H,6H,7H-pyrazolo[4,3-c]pyridine-3,5-dicarboxamide] | > 6.00 |
| CN(C(=O)c1n[nH]c2c1CN(C(=O)Nc1ccc(F)c(Cl)c1)CC2)C1(CO)CC1 [Example 3, N5-(3-chloro-4-fluorophenyl)-N3-[1-(hydroxymethyl)cyclopropyl]-N3-methyl-1H,4H,5H,6H,7H-pyrazolo[4,3-c]pyridine-3,5-dicarboxamide] | > 6.00 |
| COCC1(N(C)C(=O)c2n[nH]c3c2CN(C(=O)Nc2ccc(F)c(C#N)c2)CC3)CC1 [Example 4, N5-(3-cyano-4-fluorophenyl)-N3-[1-(methoxymethyl)cyclopropyl]-N3-methyl-1H,4H,5H,6H,7H-pyrazolo[4,3-c]pyridine-3,5-dicarboxamide] | > 6.00 |
| CC(C)OCC1(N(C)C(=O)c2n[nH]c3c2CN(C(=O)Nc2ccc(F)c(Cl)c2)CC3)CC1 [Example 5, N5-(3-chloro-4-fluorophenyl)-N3-methyl-N3-{1-[(propan-2-yloxy)methyl]cyclopropyl}-1H,4H,5H,6H,7H-pyrazolo[4,3-c]pyridine-3,5-dicarboxamide] | > 6.00 |
| CCOCC1(N(C)C(=O)c2n[nH]c3c2CN(C(=O)Nc2ccc(F)c(Cl)c2)CC3)CC1 [Example 6, N5-(3-chloro-4-fluorophenyl)-N3-[1-(ethoxymethyl)cyclopropyl]-N3-methyl-1H,4H,5H,6H,7H-pyrazolo[4,3-c]pyridine-3,5-dicarboxamide] | > 6.00 |
| O=C(Nc1ccc(F)c(Cl)c1)N1CCc2n[nH]c(C(=O)N3CC(F)(F)CC34CC4)c2C1 [Example 7, N-(3-chloro-4-fluorophenyl)-3-{6,6-difluoro-4-azaspiro[2.4]heptane-4-carbonyl}-2H,4H,5H,6H,7H-pyrazolo[4,3-c]pyridine-5-carboxamide] | > 6.00 |
| CN(C(=O)c1[nH]nc2c1CN(C(=O)Nc1ccc(F)c(Cl)c1)CC2)C1(COC(=O)C2(N)CC2)CC1 [Example 10, (1-{-methyl5-[(3-chloro-4-fluorophenyl)carbamoyl]-2H,4H,5H, 6H,7H-pyrazolo[4,3-c]pyridine-3-amido}cyclopropyl)methyl 1-aminocyclopropane-1-carboxylate] | > 6.00 |
| O=C(Nc1ccc(F)c(Cl)c1)N1CCc2n[nH]c(C(=O)N3CCCOCC34CC4)c2C1 [Example 11, N-(3-chloro-4-fluorophenyl)-3-{8-oxa-4-azaspiro[2.6]nonane-4-carbonyl}-2H,4H,5H,6H,7H-pyrazolo[4,3-c]pyridine-5-carboxamide] | > 6.00 |
| O=C(Nc1ccc(F)c(Cl)c1)N1CCc2n[nH]c(C(=O)N3CCC(O)CC34CC4)c2C1 (stereo not shown) [Example 12, N-(3-chloro-4-fluorophenyl)-3-{7-hydroxy-4-azaspiro[2.5]octane-4-carbonyl}-2H,4H,5H,6H,7H-pyrazolo[4,3-c]pyridine-5-carboxamide] | > 6.00 |

Same assay, conditions: read-out: Cell Activity (EC50); HepAD38 cells, HBV DNA in supernatant at day 6, qPCR

| Structure (SMILES) | pEC50 |
| --- | --- |
| CC1Cc2n[nH]c(C(=O)N3CC(F)(F)CC34CC4)c2CN1C(=O)Nc1ccc(F)c(Cl)c1 (single isomer, unassigned) [Example 9, N-(3-chloro-4-fluorophenyl)-3-{6,6-difluoro-4-azaspiro[2.4]heptane-4-carbonyl}-6-methyl-2H,4H,5H,6H,7H-pyrazolo[4,3-c]pyridine-5-carboxamide] | > 6.00 |
